pIC50: −log10 of the molar value. Where “and” joins values, the source holds several entries; their conditions need not be identical. Identical values can stand only once.
How the values were obtained:
[1] = target: A/H1N1pdm09 neuraminidase; assay type: biochemical, influenza A/H1N1pdm09 virus; details: read-out: IC50
[2] = target: influenza B neuraminidase; assay type: biochemical, influenza B virus; details: read-out: IC50

**Q.** With CCC(CC)[C@H](NC(C)=O)[C@@H]1[C@H](O)[C@@H](C(=O)O)C[C@H]1N=C(N)N [Peramivir, peramivir hydrate] as the compound, how does the pIC50 [1] read?
**A.** Its pIC50 is 9.35 and 9.19 and 9.59.

**Q.** CCOC(=O)C1=C[C@@H](OC(CC)CC)[C@H](NC(C)=O)[C@@H](N)C1 [Oseltamivir, oseltamivir phosphate] was tested. Which pIC50 [2] did it give?
**A.** The pIC50 was 7.85.
